From PMC7465040, “Cytotoxic and Anti-Plasmodial Activities of Stephania dielsiana Y.C. Wu Extracts and the Isolated Compounds” (Molecules, 2020)
Like-named read-outs stand apart in the source and are kept apart here.

What was measured:
[1] = test system: MCF 10A; assay: SRB cell proliferation assay, MCF10A non-cancer cells; type: cell-based; conditions: Homo sapiens
Description: (§1) In vitro anticancer study: The in vitro anti-proliferative tests were carried out as described previously, using aliquots of the cell lines used therein. Briefly, HeLa, MDA-MB-231 and MDA-MB-468, MCF7, and 184B5 and MCF 10A cell lines were purchased from ATCC. The identity of the cell lines presented in this study were verified by short tandem repeat profiling by Genetica DNA Laboratories (www.celllineauthentication.com) (April 8, 2015). MCF10A was grown in DMEM F12 medium supplemented with 0.02 μg/mL epidermal growth factor, 10% FBS, 10 μg/mL insulin and […] hydrocortisone. MDA-MB-468 were grown in DMEM supplemented with 10% FBS and antibiotics cocktail (100 μg/mL streptomycin, 100 units/mL penicillin and 250 ng/mL amphotericin B). SRB cell proliferation assays were carried out as previously described, with some minor modifications. The concentration range for all tested cell lines were from 100–0.39 μg/mL for extracts and 100–0.39 μM for pure compounds. […] All experiments were carried out at least twice.

[2] = test system: chloroquine-resistant W2 P. falciparum strain; assay: In vitro anti-plasmodial assay (HRP2 ELISA), W2; type: cell-based, Plasmodium falciparum; conditions: for IC50: read-out: IC50 (μM ± SD) W2; for SI W2 184B5 / SI W2 MCF10A: Table 3; for SI W2 184B5: selectivity index between 184B5 and parasites W2; for SI W2 MCF10A: selectivity index between MCF10A and parasites W2
Description: (§2) Parasites were grown in A-positive human blood (Etablissement Français du Sang, Marseille, France) under controlled atmospheric conditions that consisted of 10% O2, 5% CO2, and 85% N2 at 37 °C with a humidity of 95%.
(§3) In vitro anti-plasmodial assay: The two P. falciparum strains 3D7 and W2 were synchronized twice with sorbitol before use. The clonality of these strains was verified both in our laboratory and in an independent laboratory from the Worldwide Anti-malarial Resistance Network (WWARN) by PCR genotyping of the polymorphic genetic markers msp1 and msp2 and microsatellite loci. The compounds were re-suspended in methanol or DMSO 5% (v/v) and then diluted in methanol to obtain final concentrations ranging from 0.008 to 500 μg/mL (final concentration of 0.5% of methanol or DMSO). […] The plates were incubated for 72 h at 37 °C in controlled atmospheric conditions 5% CO2, 10% O2, and […]. After thawing the plates, haemolysed cultures were homogenized by vortexing the plates. Both the success of the drug susceptibility assay and the appropriate volume of haemolysed culture to use for each assay were determined for each clinical isolate during a preliminary HRP2 ELISA. Both the pre-test and subsequent ELISA assays were performed using a commercial kit (Malaria Ag Celisa, ref KM2159, Cellabs PTY LTD, Brookvale, Australia) according to the manufacturer’s recommendation. The optical density (OD) of each sample was measured with a spectrophotometer (Safire 2, Tecan, Lyon, France). […] The anti-plasmodial in vitro assay was performed five times for each product. The IC50 values represented the mean value calculated from five experiments. According to Hout, a selectivity index (SI) was based on the ratio between anti-parasitic and cytotoxic activities. In the case of our study, a SI was calculated between non-tumorigenic cell line 184B5 and parasites 3D7 or W2 and/or MCF10A and these two parasites.

[3] = test system: MDA-MB-231; assay: SRB cell proliferation assay, MDA-MB-231; type: cell-based, human; conditions: for IC50: Homo sapiens; for Selectivity index (SI) 184B5 versus MDA-MB-231 / Selectivity index (SI) MCF10A versus MDA-MB-231: Table 2B; for Selectivity index (SI) 184B5 versus MDA-MB-231: non-cancer 184B5 vs cancer MDA-MB-231; for Selectivity index (SI) MCF10A versus MDA-MB-231: non-cancer MCF10A vs cancer MDA-MB-231
Description: as §1

[4] = test system: MCF7; assay: SRB cell proliferation assay, MCF7; type: cell-based, human; conditions: for IC50: Homo sapiens; for Selectivity index (SI) 184B5 versus MCF7 / Selectivity index (SI) MCF10A versus MCF7: Table 2B; for Selectivity index (SI) 184B5 versus MCF7: non-cancer 184B5 vs cancer MCF7; for Selectivity index (SI) MCF10A versus MCF7: non-cancer MCF10A vs cancer MCF7
Description: as §1

[5] = test system: MDA-MB-468; assay: SRB cell proliferation assay, MDA-MB-468; type: cell-based, human; conditions: for IC50: Homo sapiens; for Selectivity index (SI) 184B5 versus MDA-MB-468 / Selectivity index (SI) MCF10A versus MDA-MB-468: Table 2B; for Selectivity index (SI) 184B5 versus MDA-MB-468: non-cancer 184B5 vs cancer MDA-MB-468; for Selectivity index (SI) MCF10A versus MDA-MB-468: non-cancer MCF10A vs cancer MDA-MB-468
Description: as §1

[6] = test system: HeLa; assay: SRB cell proliferation assay, HeLa; type: cell-based, human; conditions: for IC50: Homo sapiens, HeLa; for Selectivity index (SI) 184B5 versus HeLa / Selectivity index (SI) MCF10A versus HeLa: Table 2B; for Selectivity index (SI) 184B5 versus HeLa: non-cancer 184B5 vs cancer HeLa; for Selectivity index (SI) MCF10A versus HeLa: non-cancer MCF10A vs cancer HeLa
Description: as §1

[7] = test system: 184B5; assay: SRB cell proliferation assay, 184B5 non-cancer cells; type: cell-based, human; conditions: Homo sapiens
Description: as §1

[8] = test system: chloroquine-susceptible 3D7 P. falciparum strain; assay: In vitro anti-plasmodial assay (HRP2 ELISA), 3D7; type: cell-based, Plasmodium falciparum; conditions: for IC50: read-out: IC50 (μM ± SD) 3D7
Description: as §2, §3

[9] = test system: Plasmodium falciparum 3D7 and W2 strains; assay: In vitro anti-plasmodial assay, both strains; type: cell-based
Description: as §2, §3

[10] = test system: HeLa, MDA-MB231, MDA-MB-468, MCF7, 184B5 and MCF10A cell lines; assay: SRB cell proliferation assay, whole panel of cell lines; type: cell-based, human
Description: as §1

[11] = Table 2A, SRB, 72 h, read-out: IC50 (μM ± SD) MCF 10A
[12] = Table 3, non-cancer cell line, read-out: IC50 (μM ± SD) MCF 10A
[13] = 72 h, HRP2 ELISA, mean of five experiments
[14] = Plasmodium falciparum, W2, 72 h, 72 h, HRP2 ELISA, mean of five experiments
[15] = MDA-MB-231, Table 2A, SRB, 72 h, read-out: IC50 (μM ± SD) MDA-MB-231
[16] = MCF7, Table 2A, SRB, 72 h, read-out: IC50 (μM ± SD) MCF7
[17] = MDA-MB-468, Table 2A, SRB, 72 h, read-out: IC50 (μM ± SD) MDA-MB-468
[18] = 72 h, Table 2A, SRB, 72 h, read-out: IC50 (μM ± SD) HeLa
[19] = 184B5, Table 2A, SRB, 72 h, read-out: IC50 (μM ± SD) 184B5
[20] = 184B5, Table 3, non-cancer cell line, read-out: IC50 (μM ± SD) 184B5
[21] = Plasmodium falciparum, 3D7, 72 h, 72 h, HRP2 ELISA, mean of five experiments

SMILES: CCN(CC)CCCC(C)Nc1ccnc2cc(Cl)ccc12 (centres unmarked) [Chloroquine, reference compound]
- IC50 ([1]; 72 h, read-out: IC50 (μM ± SD) MCF 10A): 40.5 ± 9.8 µM
- IC50 ([1]; read-out: IC50 (μM ± SD) MCF 10A): 40.5 ± 9.8 µM
- IC50 ([2]; Plasmodium falciparum, W2, 72 h): 0.38 ± 0.03 µM
- IC50 ([3]; MDA-MB-231, 72 h, read-out: IC50 (μM ± SD) MDA-MB-231): 28.9 ± 0.4 µM
- IC50 ([4]; MCF7, 72 h, read-out: IC50 (μM ± SD) MCF7): > 50 µM
- IC50 ([5]; MDA-MB-468, 72 h, read-out: IC50 (μM ± SD) MDA-MB-468): 33.2 ± 0.4 µM
- IC50 ([6]; 72 h, read-out: IC50 (μM ± SD) HeLa): 29.8 ± 0.7 µM
- IC50 ([7]; 184B5, 72 h, read-out: IC50 (μM ± SD) 184B5): > 50 µM
- IC50 ([7]; 184B5, read-out: IC50 (μM ± SD) 184B5): > 50 µM
- IC50 ([8]; Plasmodium falciparum, 3D7, 72 h): 0.021 ± 0.005 µM

SMILES: CC(=O)O[C@H]1C(=O)[C@@]2(C)[C@H]([C@H](OC(=O)c3ccccc3)[C@]3(O)C[C@H](OC(=O)[C@H](O)[C@@H](NC(=O)c4ccccc4)c4ccccc4)C(C)=C1C3(C)C)[C@]1(OC(C)=O)CO[C@@H]1C[C@@H]2O [Paclitaxel, reference compound]
- IC50 ([1]; Table 2A, paclitaxel in nM (footnote a), read-out: IC50 MCF 10A): 0.00167 ± 0.00021 µM
- IC50 ([3]; MDA-MB-231, Table 2A, paclitaxel in nM (footnote a), read-out: IC50 MDA-MB-231): 0.00158 ± 0.00075 µM
- Selectivity index (SI) 184B5 versus MDA-MB-231 [3]: 1.67
- Selectivity index (SI) MCF10A versus MDA-MB-231 [3]: 1.10
- IC50 ([4]; MCF7, Table 2A, paclitaxel in nM (footnote a), read-out: IC50 MCF7): 0.00271 ± 0.00111 µM
- Selectivity index (SI) 184B5 versus MCF7 [4]: 0.98
- Selectivity index (SI) MCF10A versus MCF7 [4]: 0.62
- IC50 ([5]; MDA-MB-468, Table 2A, paclitaxel in nM (footnote a), read-out: IC50 MDA-MB-468): 0.00396 ± 0.00032 µM
- Selectivity index (SI) 184B5 versus MDA-MB-468 [5]: 0.67
- Selectivity index (SI) MCF10A versus MDA-MB-468 [5]: 0.42
- IC50 ([6]; Table 2A, paclitaxel in nM (footnote a), read-out: IC50 HeLa): 0.00381 ± 0.00042 µM
- Selectivity index (SI) 184B5 versus HeLa [6]: 0.7
- Selectivity index (SI) MCF10A versus HeLa [6]: 0.44
- IC50 ([7]; 184B5, Table 2A, paclitaxel in nM (footnote a), read-out: IC50 184B5): 0.00265 ± 0.00191 µM

SMILES: COc1cccc2c1C(=O)c1c3c-2c2c(cc3cc[n+]1C)OCO2 [Thailandine 2, thailandine]
- IC50 [1, 11]: 5.01 ± 0.15 µM
- IC50 [1, 12]: 5.01 ± 0.15 µM
- SI against P. falciparum (W2 vs. MCF10A) [2]: 22.8 fold
- IC50 [2, 13]: 0.22 ± 0.02 µM
- IC50 [2, 14]: 0.24 µM
- SI W2 184B5 [2]: 13.73
- SI W2 MCF10A [2]: 22.77
- IC50 [3, 15]: 7.11 ± 0.07 µM
- Selectivity index (SI) 184B5 versus MDA-MB-231 [3]: 0.42
- Selectivity index (SI) MCF10A versus MDA-MB-231 [3]: 0.70
- IC50 [4, 16]: 1.99 ± 1.36 µM
- Selectivity index (SI) 184B5 versus MCF7 [4]: 1.50
- Selectivity index (SI) MCF10A versus MCF7 [4]: 2.50
- IC50 [5, 17]: 0.78 ± 0.12 µM
- Selectivity index (SI) 184B5 versus MDA-MB-468 [5]: 3.90
- Selectivity index (SI) MCF10A versus MDA-MB-468 [5]: 6.40
- Anti-plasmodial activity against both 3D7 and W2 (in words) [9]: strong activity
- Selectivity index (SI) between cells and parasites ([9]; 184B5, MCF10A vs 3D7, W2): > 12
- IC50 ([10]; Homo sapiens, cancer and non-cancer cell lines, read-out: IC50 values, range over the cell lines examined): 0.78 to 7.11 µM
- IC50 [6, 18]: 4.1 ± 0.4 µM
- Selectivity index (SI) 184B5 versus HeLa [6]: 0.73
- Selectivity index (SI) MCF10A versus HeLa [6]: 1.20
- IC50 [7, 19]: 3.02 ± 0.1 µM
- IC50 [7, 20]: 3.02 ± 0.1 µM
- SI against P. falciparum (3D7 vs. 184B5) [8]: 12.6 fold
- IC50 [8, 13]: 0.24 ± 0.04 µM
- IC50 [8, 21]: 0.22 µM
- SI 3D7 184B5 ([8]; Table 3, selectivity index between 184B5 and parasites 3D7): 12.58
- SI 3D7 MCF10A ([8]; Table 3, selectivity index between MCF10A and parasites 3D7): 20.86

SMILES: COc1cc2c(cc1OC)-c1cc3ccc(OC)c(OC)c3c[n+]1CC2 [Palmatine chloride 6, palmatine]
- IC50 [1, 11]: > 50 µM
- IC50 [1, 12]: > 50 µM
- IC50 [2, 14]: 3.19 ± 0.64 µM
- SI W2 184B5 [2]: >15.67
- SI W2 MCF10A [2]: >15.67
- IC50 [3, 15]: > 50 µM
- IC50 [4, 16]: > 50 µM
- IC50 [5, 17]: > 50 µM
- Anti-plasmodial activity against both 3D7 and W2 (in words) [9]: strong activity
- Anti-proliferative activity (in words) [10]: did not show any effect
- IC50 [6, 18]: > 100 µM
- IC50 [7, 19]: > 50 µM
- IC50 [7, 20]: > 50 µM
- IC50 [8, 21]: 1.25 ± 0.28 µM
- Selective index SI on 3D7 strain ([8]; vs 184B5 and MCF10A): > 20
